Measurements as given in patent publication US20130084328A1, “METHYLATED CODING AND NON-CODING RNA GENES AS DIAGNOSTIC AND THERAPEUTIC TOOLS FOR HUMAN MELANOMA” (Sanford-Burnham Medical Research Institute, priority 2011, published 2013).

Test system: miR-124-3a and miR-let-7i
Test: expression and bisulfite methylation of miR-124-3a and miR-let-7i after 5-Aza-dC
Type: cell-based, human
Conditions: melanoma cells
Method: PCR was performed using a 6-minute hot-start at 95° C., followed by 35 cycles at 94° C. for 20 s, 54° C. for 25 s, and 72° C. for 30 s, ending with a 10-min extension at 72° C. using AmpliTaq Gold (Applied Biosystems/Life Technologies). PCR products were gel purified using the QiaQuick gel extraction kit (QIAGEN) and cloned into the pCR4-TOPO vector (Invitrogen/Life Technologies). Nine clones for each miRNA candidate and 6 clones for each patient sample were sequenced using M13 primers and the BigDye terminator kit v1.1 (Applied Biosystems/Life Technologies), analyzed on a 3130×1 Genetic Analyzer (Applied Biosystems/Life Technologies), and aligned using Vector NTi AlignX (Invitrogen/Life Technologies).

## Nc1ncn([C@H]2C[C@H](O)[C@@H](CO)O2)c(=O)n1 [5AzadC, 5-aza-2′-deoxycytidine]
  expression and methylation levels of miR-124-3a and miR-let-7i: not affected
